Test results from US9833497B2, “Human originated EGF domain proteins and use of the same” (CHENGDU SOURCEBIO LIMITED-LIABILITY COMPANY, priority 2013, dated 2017).

Tests used:
Assay type in all cases: cell-based
[1] = test system: Moraxella catarrhalis; assay: MIC against Gram-negative bacteria: Moraxella catarrhalis; conditions: 5×10^5 CFU/mL
Outline: (§1)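 Read-out is absence of bacterial growth, with MIC set at the lowest recombinant protein concentration achieving it. Bacteria, pre-grown in LB to McFarland 0.5 and resuspended, were exposed at 5×10^5 CFU/mL to two-fold diluted human EGF domain proteins in triplicate at 37° C, 175 rpm.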

[2] = test system: Proteus vulgaris; assay: MIC against Gram-negative bacteria: Proteus vulgaris; conditions: 5×10^5 CFU/mL
Outline: as §1

[3] = test system: E. coli DH5α; assay: Antibacterial activity: MIC and growth curve against E. coli DH5α in 96-well plate; conditions: minimal inhibitory concentration against E. coli DH5α; 96-well plate, 5×10^5 CFU/mL, 37° C., judged after 8 h
Outline: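 Log-phase DH5α (OD600 about 0.5, 37° C, 185 rpm in LB) was pelleted, resuspended in fresh LB and seeded at 5×10^5 CFU/mL with recombinant protein at 50, 25 and 12.5 μg/mL (two-fold series), in triplicate. Plates were shaken at 175 rpm, 37° C, and OD600 was read every 30 min. MIC was the lowest concentration with no growth.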

[4] = test system: Klebsiella pneumonia; assay: MIC against Gram-negative bacteria: Klebsiella pneumonia; conditions: 5×10^5 CFU/mL
Outline: as §1

[5] = test system: Citrobacter diversus; assay: MIC against Gram-negative bacteria: Citrobacter diversus; conditions: 5×10^5 CFU/mL
Outline: as §1

[6] = test system: Proteus mirabilis; assay: MIC against Gram-negative bacteria: Proteus mirabilis; conditions: 5×10^5 CFU/mL
Outline: as §1

[7] = test system: Enterobacter cloacae; assay: MIC against Gram-negative bacteria: Enterobacter cloacae; conditions: 5×10^5 CFU/mL
Outline: as §1

[8] = test system: Pseudomonas aeruginosa; assay: MIC against Gram-negative bacteria: Pseudomonas aeruginosa; conditions: 5×10^5 CFU/mL
Outline: as §1

[9] = test system: Serratia marcescens; assay: MIC against Gram-negative bacteria: Serratia marcescens; conditions: 5×10^5 CFU/mL
Outline: as §1

[10] = test system: Aeromonas hydrophila; assay: MIC against Gram-negative bacteria: Aeromonas hydrophila; conditions: 5×10^5 CFU/mL
Outline: as §1

[11] = test system: E. coli BL21; assay: MIC against Gram-negative bacteria: E. coli BL21; conditions: 5×10^5 CFU/mL
Outline: as §1

[12] = Moraxella catarrhalis, 10 h cultivation at 37° C.
[13] = Proteus vulgaris, 10 h cultivation at 37° C.
[14] = Klebsiella pneumonia, 10 h cultivation at 37° C.
[15] = Citrobacter diversus, 10 h cultivation at 37° C.
[16] = Proteus mirabilis, 10 h cultivation at 37° C.
[17] = Enterobacter cloacae, 10 h cultivation at 37° C.
[18] = Pseudomonas aeruginosa, 10 h cultivation at 37° C.
[19] = Serratia marcescens, 10 h cultivation at 37° C.
[20] = Aeromonas hydrophila, 10 h cultivation at 37° C.
[21] = E. coli BL21, 10 h cultivation at 37° C.
[22] = M. catarrhalis, 10 h cultivation at 37° C.
[23] = P. vulgaris, 10 h cultivation at 37° C.
[24] = K. pneumonia, 10 h cultivation at 37° C.
[25] = C. diversus, 10 h cultivation at 37° C.
[26] = P. mirabilis, 10 h cultivation at 37° C.
[27] = E. cloacae, 10 h cultivation at 37° C.
[28] = P. aeruginosa, 10 h cultivation at 37° C.
[29] = S. marcescens, 10 h cultivation at 37° C.
[30] = A. hydrophila, 10 h cultivation at 37° C.

Row | Substance | MIC against M. catarrhalis [1, 12] | MIC against P. vulgaris [2, 13] | MIC [3] | MIC against K. pneumonia [4, 14] | MIC against C. diversus [5, 15] | MIC against P. mirabilis [6, 16] | MIC against E. cloacae [7, 17] | MIC against P. aeruginosa [8, 18] | MIC against S. marcescens [9, 19] | MIC against A. hydrophila [10, 20] | MIC against E. coli BL21 [11, 21] | further results
1 | PRT1396 (LGADCAKAACPVLCSGNGQYSKGTCQCYSGWKGAECD; listed as Homo sapiens) | 25 µg/mL | 25 µg/mL | 12.5 µg/mL | 12.5 µg/mL | 12.5 µg/mL | 12.5 µg/mL | 25 µg/mL | 12.5 µg/mL | 12.5 µg/mL | 25 µg/mL | 12.5 µg/mL | –
2 | PRT1439 (EEDECAKPDRGGCEQRCLNTLGSYQCACEPGYELGPDRRSCE; listed as Homo sapiens) | 12.5 µg/mL | 12.5 µg/mL | 50 µg/mL | 12.5 µg/mL | 50 µg/mL | 50 µg/mL | 50 µg/mL | 50 µg/mL | 50 µg/mL | 12.5 µg/mL | 12.5 µg/mL | –
3 | PRT1481 (PVNLCKPSPCMNEGSCVLQNGSYRCKCRDGWEGPHCE; listed as Homo sapiens) | 50 µg/mL | 50 µg/mL | 12.5 µg/mL | 12.5 µg/mL | 12.5 µg/mL | 12.5 µg/mL | 50 µg/mL | 50 µg/mL | 25 µg/mL | 25 µg/mL | 25 µg/mL | –
4 | PRT369 (DVDECLSSPCVSGVCRNLAGSYTCKCGPGSRLDPSGTFCL; listed as Homo sapiens) | – | – | 50 µg/mL | – | – | – | – | – | – | – | – | MIC [1, 22]: 50 µg/mL; MIC [2, 23]: 50 µg/mL; MIC [4, 24]: 50 µg/mL; MIC [5, 25]: 25 µg/mL; MIC [6, 26]: 12.5 µg/mL; MIC [7, 27]: 25 µg/mL; MIC [8, 28]: 12.5 µg/mL; MIC [9, 29]: 12.5 µg/mL; MIC [10, 30]: 12.5 µg/mL; MIC [11, 21]: 25 µg/mL
5 | PRT203 (CSPAFCNKRGICNNKHHCHCNYLWDPPNCL; listed as Homo sapiens) | – | – | 12.5 µg/mL | – | – | – | – | – | – | – | – | MIC (μg/mL) M. catarrhalis [1, 22]: 25 µg/mL; MIC (μg/mL) P. vulgaris [2, 23]: 25 µg/mL; MIC (μg/mL) K. pneumonia [4, 24]: 25 µg/mL; MIC (μg/mL) C. diversus [5, 25]: 50 µg/mL; MIC (μg/mL) P. mirabilis [6, 26]: 50 µg/mL; MIC (μg/mL) E. cloacae [7, 27]: 12.5 µg/mL; MIC (μg/mL) P. aeruginosa [8, 28]: 12.5 µg/mL; MIC (μg/mL) S. marcescens [9, 29]: 50 µg/mL; MIC (μg/mL) A. hydrophila [10, 30]: 25 µg/mL; MIC (μg/mL) E. coli BL21 [11, 21]: 25 µg/mL
6 | PRT1355 (AELSCPNDCHGQGRCVNGQCVCHEGFMGKDCK; listed as Homo sapiens) | 12.5 µg/mL | 50 µg/mL | 50 µg/mL | 25 µg/mL | 50 µg/mL | 25 µg/mL | 50 µg/mL | 12.5 µg/mL | 25 µg/mL | 12.5 µg/mL | 25 µg/mL | –
7 | PRT490 (CASAPCRNGGVCREGWNRFICDCIGTGFLGRVCE; listed as Homo sapiens) | – | – | 25 µg/mL | – | – | – | – | – | – | – | – | MIC against M. catarrhalis ([1]; 96-well plate, 37° C., 10 h): 12.5 µg/mL; MIC against P. vulgaris ([2]; 96-well plate, 37° C., 10 h): 50 µg/mL; MIC against K. pneumonia ([4]; 96-well plate, 37° C., 10 h): 12.5 µg/mL; MIC against C. diversus ([5]; 96-well plate, 37° C., 10 h): 25 µg/mL; MIC against P. mirabilis ([6]; 96-well plate, 37° C., 10 h): 25 µg/mL; MIC against E. cloacae ([7]; 96-well plate, 37° C., 10 h): 25 µg/mL; MIC against P. aeruginosa ([8]; 96-well plate, 37° C., 10 h): 25 µg/mL; MIC against S. marcescens ([9]; 96-well plate, 37° C., 10 h): 25 µg/mL; MIC against A. hydrophila ([10]; 96-well plate, 37° C., 10 h): 50 µg/mL; MIC against E. coli BL21 ([11]; 96-well plate, 37° C., 10 h): 50 µg/mL
